Assay results published in patent publication US20100248377A1, “DETECTION OF CONTRAST MEDIUM-INDUCED NEPHROTOXICITY” (priority 2007, published 2010).

Experiments:
Assay type in all cases: in vivo, human
[1] = system: total adiponectin (urine); experiment: Dose response analysis, total adiponectin in urine of PCTA patients after contrast medium; conditions: for Adiponectin Changes: 24 h vs 0 h; for 24 h Adiponectin: urine
Protocol: (§1) The effect of the administration of various amounts of the contrast medium Iobitridol (Xenetix, Xen 350) on the level of creatinine, urotensin II, total adiponectin and L-FABP in urine samples obtained from subjects which underwent percutaneous transluminal coronary angioplasty (PCTA) was analysed. All six patients examined in this study had no apparent renal disorder indicated by a serum creatinine level of less than 1.2 mg/dl (before PCTA). Each patient received a different amount of the contrast medium (50 ml, 80 ml, 100 ml, 150 ml, 220 ml and 350 ml, respectively). The urinary levels of creatinine, urotensin II, total adiponectin and L-FABP were determined in samples that were obtained prior to the administration of different volumes of the contrast medium (time point 0) and 24 h after the administration of the contrast medium. […] The results are normalized to the urinary creatinine concentration. From the data it clearly can be seen that a high dose of an administered contrast medium leads to a significant increase of adiponectin and L-FABP.

L-FABP (urine) [2] = experiment: Dose response analysis, L-FABP in urine of PCTA patients after contrast medium; conditions: for L-FABP Changes: 24 h vs 0 h; for 24 h L-FABP: urine
Protocol: as §1

urotensin II (urine) [3] = experiment: Dose response analysis, urotensin II in urine of PCTA patients after contrast medium; conditions: 24 h after vs before administration; six patients, 50-350 ml
Protocol: as §1

creatinine (urine) [4] = experiment: Dose response analysis, creatinine in urine of PCTA patients after contrast medium; conditions: 24 h after vs before administration; six patients, 50-350 ml
Protocol: as §1

creatinine (urine) [5] = experiment: Example 2 study, 20 PCTA subjects, urine creatinine after contrast medium; conditions: n = 20, t = 0 h value 0.75
Protocol: (§2) In a different study, the effect of the administration of the contrast medium lobitridol (Xenetix, Xen 350) on the urine level of creatinine, urotensin II, total adiponectin and L-FABP in samples obtained from 20 subjects which underwent percutaneous transluminal coronary angioplasty (PCTA) was analyzed. Samples were obtained prior to the administration of the contrast medium (t=0 h), four hours after administration of the contrast medium (t=4 h), as well as 24 hours after administration of the contrast medium.

L-FABP (urine) [6] = experiment: Example 2 study, 20 PCTA subjects, urine L-FABP after contrast medium; conditions: for L-FABP, median: urine, n = 20, t = 0 h value 13.44
Protocol: as §2

urotensin II (urine) [7] = experiment: Example 2 study, 20 PCTA subjects, urine urotensin II after contrast medium; conditions: for Urotensin II, median: urine, n = 20, t = 0 h value 1.18
Protocol: as §2

[8] = system: total adiponectin (urine); experiment: Example 2 study, 20 PCTA subjects, urine total adiponectin after contrast medium; conditions: n = 20, t = 0 h value 0.66
Protocol: as §2

HMW adiponectin (urine) = experiment: Example 3 case, coronary angiography, urine HMW adiponectin; conditions: person, 350 ml, 24 hours after administration; before 0.92
Protocol: (§3) In order to examine whether the chest pain is caused by a coronary artery disease, a coronary angiography is initiated. A serum sample is obtained from the patient prior to the angiography and the amount of creatinine is determined in a serum sample (0.9 mg/dl). Moreover, in a urine sample HMW adiponectin, urotensin II and L-FABP are determined (adiponectin 0.92 μg/g Creatinine; L-FABP 7 μg/g Creatinine; Urotensin II: 1.2 μg/g Creatinine).
(§4) For coronary angiography 350 ml Xen350 are administered to the patient as a contrast medium. After successful coronary angiography, the patient is monitored for 24 hours. Moreover, creatinine (serum level: 1 mg/dl), adiponectin, L-FABP and urotensin II are determined again after 24 hours after the administration of the contrast medium (urine level: adiponectin 1.55 μg/g Creatinine; L-FABP 21 μg/g Creatinine; Urotensin II: 6 μg/g Creatinine).

L-FABP (urine) [9] = experiment: Example 3 case, coronary angiography, urine L-FABP; conditions: person, 350 ml, 24 hours after administration; before 7
Protocol: as §3, §4

urotensin II (urine) [10] = experiment: Example 3 case, coronary angiography, urine urotensin II; conditions: person, 350 ml, 24 hours after administration; before 1.2
Protocol: as §3, §4

serum creatinine = experiment: Example 3 case, coronary angiography, serum creatinine and renal outcome; conditions: person, 350 ml
Protocol: as §3, §4

[11] = 24 h after vs before administration, six patients, 50-350 ml

CN(CC(O)CO)C(=O)c1c(I)c(NC(=O)C(CO)CO)c(I)c(C(=O)N(C)CC(O)CO)c1I (centres unmarked) [Xen350, Iobitridol]
increase of median adiponectin in urine [1, 11]: 400% | Adiponectin Changes ([1]; Patient 1, 50 ml): −88% | 24 h Adiponectin ([1]; Patient 1, 50 ml, 0 h value 0.92): 0.11 ug/g Crea | Adiponectin Changes ([1]; Patient 2, 80 ml): −22% | 24 h Adiponectin ([1]; Patient 2, 80 ml, 0 h value 2.99): 2.34 ug/g Crea | Adiponectin Changes ([1]; Patient 3, 100 ml): −44% | 24 h Adiponectin ([1]; Patient 3, 100 ml, 0 h value 2.68): 1.49 ug/g Crea | Adiponectin Changes ([1]; Patient 4, 150 ml): −91% | 24 h Adiponectin ([1]; Patient 4, 150 ml, 0 h value 0.32): 0.03 ug/g Crea | Adiponectin Changes ([1]; Patient 5, 220 ml): 897% | 24 h Adiponectin ([1]; Patient 5, 220 ml, 0 h value 0.41): 3.68 ug/g Crea | Adiponectin Changes ([1]; Patient 6, 350 ml): 690% | 24 h Adiponectin ([1]; Patient 6, 350 ml, 0 h value 0.1): 0.69 ug/g Crea | increase of median L-FABP in urine (L-FABP (urine) [2]; [11]): 415% | L-FABP Changes (L-FABP (urine) [2]; Patient 1, 50 ml): −45% | 24 h L-FABP (L-FABP (urine) [2]; Patient 1, 50 ml, 0 h value 20.19): 11.17 ug/g Crea | L-FABP Changes (L-FABP (urine) [2]; Patient 2, 80 ml): 49% | 24 h L-FABP (L-FABP (urine) [2]; Patient 2, 80 ml, 0 h value 42.71): 63.48 ug/g Crea | L-FABP Changes (L-FABP (urine) [2]; Patient 3, 100 ml): 40% | 24 h L-FABP (L-FABP (urine) [2]; Patient 3, 100 ml, 0 h value 13.77): 19.33 ug/g Crea | L-FABP Changes (L-FABP (urine) [2]; Patient 4, 150 ml): 481% | 24 h L-FABP (L-FABP (urine) [2]; Patient 4, 150 ml, 0 h value 6.8): 32.74 ug/g Crea | L-FABP Changes (L-FABP (urine) [2]; Patient 5, 220 ml): 544% | 24 h L-FABP (L-FABP (urine) [2]; Patient 5, 220 ml, 0 h value 13.1): 71.23 ug/g Crea | L-FABP Changes (L-FABP (urine) [2]; Patient 6, 350 ml): 406% | 24 h L-FABP (L-FABP (urine) [2]; Patient 6, 350 ml, 0 h value 4.36): 17.71 ug/g Crea | increase of median urotensin II in urine (urotensin II (urine) [3]): 350% | increase of median creatinine in urine (creatinine (urine) [4]): 41% | Creatinine, median (creatinine (urine) [5]; t = 4 h): 0.45 g/L | Creatinine, median (creatinine (urine) [5]; t = 24 h): 1.05 g/L | L-FABP (L-FABP (urine) [6]; Table 3 Patient 1, t = 4 h, t = 0 h value 12): 6 μg/g Creatinine | L-FABP (L-FABP (urine) [6]; Table 3 Patient 1, t = 24 h, t = 0 h value 12): 26 μg/g Creatinine | L-FABP (L-FABP (urine) [6]; Table 3 Patient 2, t = 4 h, t = 0 h value 5): 6 μg/g Creatinine | L-FABP (L-FABP (urine) [6]; Table 3 Patient 2, t = 24 h, t = 0 h value 5): 33 μg/g Creatinine | L-FABP, median (L-FABP (urine) [6]; t = 4 h): 12.16 μg/g Creatinine | L-FABP, median (L-FABP (urine) [6]; t = 24 h): 26.03 μg/g Creatinine | Urotensin II (urotensin II (urine) [7]; Table 3 Patient 1, t = 4 h, t = 0 h value 832): 999 pg/mL | Urotensin II (urotensin II (urine) [7]; Table 3 Patient 1, t = 24 h, t = 0 h value 832): 2591 pg/mL | Urotensin II (urotensin II (urine) [7]; Table 3 Patient 2, t = 4 h, t = 0 h value 1043): 1131 pg/mL | Urotensin II (urotensin II (urine) [7]; Table 3 Patient 2, t = 24 h, t = 0 h value 1043): 39441 pg/mL | Urotensin II, median (urotensin II (urine) [7]; t = 4 h): 1.23 μg/g Creatinine | Urotensin II, median (urotensin II (urine) [7]; t = 24 h): 1.77 μg/g Creatinine | Adiponectin, median ([8]; t = 4 h): 0.89 μg/g Creatinine | Adiponectin, median ([8]; t = 24 h): 1.09 μg/g Creatinine | adiponectin urine level (HMW adiponectin (urine)): 1.55 μg/g Creatinine | L-FABP urine level (L-FABP (urine) [9]): 21 μg/g Creatinine | Urotensin II urine level (urotensin II (urine) [10]): 6 μg/g Creatinine | creatinine serum level (serum creatinine; 24 hours after administration, before 0.9): 1 mg/dL | serum creatinine level (serum creatinine; after two more days (after the 24 h monitoring)): 2.5 mg/dL | renal outcome diagnosed (serum creatinine; after two more days, significantly reduced urine excretion): acute renal failure
